Measurements from patent US20220401573A1, “COMPOSITION AND METHOD FOR TREATMENT OF MULTIPLE SCLEROSIS” (Wuhan Vast Conduct Science Foundation CO., LTD., priority 2019, published 2022).

System: EAE mice
Assay: Clinical scoring of MOG-induced EAE in mice
Format: in vivo, C57BL/6N female mice
Conditions: 10 mg/kg p.o., day 1 to day 28, positive control, FIG. 10
Procedure: C57BL/6N female mice, 7-9 weeks old, were used. Animals were housed and maintained in compliance with the regulations.
On Day 0, mice were grouped randomly by body weight, and then injected subcutaneously with 200 μg of myelin oligodendrocyte glycoprotein (MOG) peptide in complete Freund's adjuvant (CFA) into the right and left flank, 100 μl per site. Pertussis toxin (PTX) injected by i.p at 0 and 48 hours after MOG immunization. Compounds were given from day 1 to day 28 according to Table 2. The animals (n=10) were scored daily for clinical signs of EAE. At the end of the experiments, spinal cords were used for HE staining (n=5), and analysis of TNF-α, IL-17, IFN-γ by Elisa kit.
The animals were scored daily for clinical signs of EAE according to the Clinical scoring rubric for EAE (Table 3).

## C[C@]12C=CC(=O)C=C1CC[C@@H]1[C@@H]2C(=O)C[C@@]2(C)[C@H]1CC[C@]2(O)C(=O)CO [prednisone, Prednisone]
  clinical signs of EAE (clinical score): significantly reduced clinical signs of EAE from day 13th
